Data from patent US20260263417A1, “STRUCTURE-BASED OPTIMIZATION OF S6K2 INHIBITOR CD02 TO TARGET MELANOMA” (THE WISTAR INSTITUTE OF ANATOMY AND BIOLOGY, priority 2023, published 2026).
Residues, ends and D or L forms follow the SMILES beside them. *: point of attachment. Cbz = O=C(OCc1ccccc1)*; CH2F = FC*

Assays:
[1] = tested on: MAPKi-R NRAS-mutant melanoma cells; type: cell-based; settings: for effect on FNB/DHA-induced cell death: M93-047, GSH 2 mM, zVAD 20 μM, Kira6 0.2 μM pre-treatment; for effect on cell death induced by S6K2 depletion (S6K2 shRNA): M93-047 cells transduced with S6K2 shRNA; for effect on S6K2i (CD02)-induced cell death: MAPKi-R cells treated with CD02
Procedure: Floating and attached cells were harvested, washed and stained with PSVue 643/PI or Annexin V-FITC/PI. Annexin V staining was performed as described previously (45), with 15 min Annexin V incubation. For PSVue/PI staining, cells were incubated in 3 μM PSVue 643/TES for 10 min at RT, washed in TES buffer and resuspended in PI (5 μg/mL)/TES for 15 min at RT. Cell death (Annexin V^+/PSVue^+ or PI^+) was quantified by FACS (LSRII 18 color analyzer, BD Biosciences) and analyzed using FlowJo software v.10.7.2.

[2] = tested on: M93047 and WM3623 cell lines; experiment: Preliminary in vitro studies against MAPKi-R cell lines; type: cell-based, human; settings: at lower concentrations
[3] = tested on: pS6 (S240/244) in MAPKi-S cells; experiment: Phosphorylation of S6K/S6 in MAPKi-S cells (immunoblotting, RPPA, flow cytometry); type: cell-based, human
Procedure: (§1) Cells were lysed with RIPA buffer (50 mM Tris-HCl, pH 7.4, 150 mM NaCl, 1% NP-40, 0.5% sodium deoxycholate, 1 mM EDTA, 2.5 mM sodium pyrophosphate, 0.05% or 0.1% SDS) supplemented with sodium vanadate (0.2 mM) and protease inhibitor cocktail (Sigma-Aldrich #11697498001). Immunoblotting was performed as previously described (Echevarria-Vargas et al., 2018). Immunoblots were imaged with an Odyssey Infrared Imaging System (LI-COR Biosciences).
(§2) Flow cytometry. Cells were fixed in 90% ice cold EtOH/PBS and stored at −20° C. Cells were washed twice with PBS followed by 1 h incubation at RT with incubation buffer (1% BSA/PBS) containing primary antibodies (1:500 pS6 S240/244 Cell Signaling Technology #5364; 1:1000 HA Sigma-Aldrich #H9658). Samples were washed once (1×PBS), incubated for 30 min at RT with incubation buffer containing secondary antibodies diluted to 1:500 (goat anti-mouse Alexa Fluor 488 ThermoFisher #A11029; goat anti-rabbit Alexa Fluor 647 #A21244), washed (1×PBS) and resuspended in incubation buffer for analysis by flow cytometry (BD LSRII 14-color flow cytometer analyser; Alexa Fluor 488 and APC filter sets). Data analyses were performed using FlowJo software to calculate pS6 positivity. For 4-HNE staining, cells were fixed with 4% paraformaldehyde for 15 min, washed with PBS and stored at 4° C. […]

[4] = tested on: pS6 (S240/244) in MAPKi-R cells; experiment: Phosphorylation of S6K/S6 in MAPKi-R cells (immunoblotting, RPPA, flow cytometry); type: cell-based, human
Procedure: as §1, §2

[5] = tested on: spliced XBP-1 and PPARα in M93-047 cells; experiment: Spliced XBP-1 and PPARα levels by qRT-PCR / Western blotting; type: cell-based, human
Procedure: as §1
Cell pellets were homogenized using QIAshredder (QIagen #79656) and RNA extracted with PureLink RNA mini kit (Thermo Fisher Scientific, #12183018A). DNA was removed by on-column PureLink DNase treatment (Thermo Fisher Scientific, #12185010). First-strand cDNA was synthesized using Maxima cDNA kit (Thermo Scientific™ #K1642). Real time qPCR was performed using SYBR green PCR Master Mix (Applied Biosystems #4385612). Tumor samples for qRT-PCR were preserved in RNAlater solution (Invitrogen #AM7020).

Row | SMILES | effect on FNB/DHA-induced cell death [1] | effect on cell death induced by S6K2 depletion (S6K2 shRNA) [1] | effect on S6K2i (CD02)-induced cell death [1] | other results
1 | COC(=O)C[C@H](NC(=O)[C@H](C)NC(=O)[C@@H](NC(=O)OCc1ccccc1)C(C)C)C(=O)CF [zVAD, zVAD(OMe)-FMK] (Cbz-Val-Ala-Asp(OMe)-CH2F) | attenuated FNB/DHA-induced cell death | also attenuated cell death | attenuate S6K2i-induced cell death | –
2 | N[C@@H](CCC(=O)N[C@@H](CS)C(=O)NCC(=O)O)C(=O)O [GSH, glutathione] | attenuated FNB/DHA-induced cell death | also attenuated cell death | attenuate S6K2i-induced cell death | –
3 | O=C(CCl)Nc1ccc(-c2cc(O)cc3sc(=O)oc23)cc1 [MM-113] | – | – | – | potency compared with RT12 [2]: better potency at lower concentrations
4 | O=C(Nc1ccc2[nH]nc(-c3ccncc3)c2c1)[C@@H]1CCN(CC(=O)N2CCN(c3ccc(-c4ncccn4)cc3)CC2)C1 [SCH984, SCH772984] | – | – | – | phosphorylation of S6K / S6 [3]: decreased phosphorylation of S6; phosphorylation of S6K / S6 [4]: no effect on phosphorylation of S6
5 | CC(=O)N[C@@H](CS)C(=O)O [NAC] | – | protects M93047 cells from S6K2sh induced cell death | rescues S6K2i-induced cell death | –
6 | Cn1cc(-c2ccc(F)c(C(F)(F)F)c2)nc1C1CCN(c2ncnc3[nH]ncc23)CC1 [LY2584702] | – | – | – | cytotoxicity with ectopically expressed activated S6K1 ([1]; M93-047 with S6K1^T389E, 1, 5, 10 μM, 48 hours): enhanced LY4702 cytotoxicity
7 | CC(C)(C)c1nc(-c2ccc(NC(=O)Nc3cccc(C(F)(F)F)c3)c3ccccc23)c2c(N)nccn12 [Kira6] | attenuated FNB/DHA-induced cell death | partially attenuated cell death | attenuate S6K2i-induced cell death | upregulation of XBP-1 splicing and PPARα expression caused by S6K2 knockdown ([5]; M93-047, S6K2 shRNA): suppressed; activation of XBP-1 by FNB/DHA ([5]; cotreatment with 0.2 μM Kira6): suppressed the activation of XBP-1
8 | CCOC(=O)c1ccc(NC2CCCCC2)c(N)c1 [ferrostatin-1] | – | did not attenuate cell death | – | –
9 | COc1ncc(-c2ccc3nccc(-c4ccnnc4)c3c2)cc1NS(=O)(=O)c1ccc(F)cc1F [GSK458, GSK2126458] | – | – | – | phosphorylation of S6K / S6 [3]: decreased phosphorylation of S6; phosphorylation of S6K / S6 [4]: effectively suppressed pS6
